Where “and” joins values, the source holds several entries; their conditions need not be identical. Identical values can stand only once. Entries after “also recorded” stand apart in the source; their conditions may differ.
System: male Long Evans rats
Assay: Progressive ratio (PR) schedule of reinforcement for food (Progressive Ratio Test, PRT)
Assay type: in vivo, rat
Design: Sess. Duration: unit not given here
Details: AVG
Protocol: The objective of this study was to test the effect of Compound A (1, 3, or 8 mg/kg, p.o.) on motivation as measured by rats responding for food under a progressive ratio (PR) schedule of reinforcement. Test measures included the total number of lever presses, and number of rewards (food pellets) acquired (break point).
The progressive ratio (PR) task is a cross species translational approach used as measure of motivational performance including as a measure of anhedonia (see, e.g., Hodos W., Science 1961, 134:943-944; Spierling et al., Physiol Behav. 2017, 177:99-106; Radke et al., Pharmacol Biochem Behav. 2015, 129:51-55; Hauser et al., Hormones and Behavior 2009, 56:364-375; Merali et al., Psychopharmacology 2003, 165:413-418; Marchese et al., Int J Neuropsychopharmacology 2013, 16:1611-1621; Karlsson et al., Hippocampus 2018, 28 (7): 512-522: Strauss et al., Schizophr Res. 2016, 170 (1): 198-204; and Gunthorpe et al., Epilepsia 2012, 53 (3): 412-424). In rodent species, the basic test design involves training subjects to lever press for a food reward (45 mg Bioserve pellets) under a schedule in which the number of responses required to achieve a pellet increased for successive reinforcers. The present study used a progression ratio derived from the equation ratio=[5×e^(0.2×reinforcer #)−5], and was as follows: 2, 4, 6, 9, 12, 15, 20, 25, 32, 40, 50, 62, 77, 95, 118, 145, 178, etc. Rats were therefore required to lever press a progressively increasing number of times to gain each successive reward, until reaching a break point, i.e., not meeting the schedule requirement. […] This provided a quantitative measurement of effort the animal would expend for the given reinforcer, which was interpreted as a measure of motivation. Based on the amount of food acquired during a typical test session (e.g., a break point of 10-12, corresponds to 0.45-0.54 g food), responding is limited by the amount of effort the animal is willing to expend for a single food pellet, rather than factors such as satiety.
Rats may be categorized based on differences in PR breakpoint, i.e., “low” and “high” responders. […] Motivational deficits are commonly seen in anhedonia associated with many neuropsychological disorders, such as depression, dementia, and schizophrenia (Lactôt et al., Alzheimer's and Dementia 2017, 13:84-100) and efficacy in treating “low” responder rats is indicative of efficacy in treating more significant or severe anhedonia.
The primary purpose of this proposal was to evaluate the effect of Compound A on motivational performance of Male Long Evans rats under a progressive ratio schedule. A large (N=32) cohort of rats were used and the effect of Compound A was investigated both in all rats, and also a “low” responder subgroup, based on the low tertile (N=11) cohort recorded over 5 days baseline responding prior to study commencement.
Dosage form: Compound A was suspended in 0.5% CMC-Na and 0.1% Tween 80 in purified water and sonicated until fully dissolved. Drug was administered at a volume of 10 mL/kg, orally.
Doses tested: 1, 3, 8 mg/kg.
Pretreatment time: 120 minutes.
Dosage form: D-Amp was suspended in 0.9% saline and sonicated until fully dissolved. Drug was administered at a volume of 1 mL/kg, intraperitoneally.
Pretreatment time: 10 minutes.
Test System: Thirty-two (32) experimentally non-naïve male Long Evans rats were included in the study.
Housing and Management of Test System: Animals were singly housed and maintained on a restricted diet regimen, in which they were fed approximately 18-20 g of standard laboratory chow once per day following the completion of study procedures (between 16:00 h and 18:00 h). Water was available ad-libitum, excluding during training/testing sessions. Animals were maintained on a 12 h/12 h light/dark cycle with all testing conducted during the animals' light cycle. All animal use procedures were performed in accordance with the principles of the Canadian Council on Animal Care (CCAC). […]

[1] = High responder subgroup (N=11), 1 mg/kg p.o.
[2] = High responder subgroup (N=11), 3 mg/kg p.o.
[3] = High responder subgroup (N=11), 8 mg/kg p.o.
[4] = Low responder subgroup (N=11), 1 mg/kg p.o.
[5] = Low responder subgroup (N=11), 3 mg/kg p.o.
[6] = Low responder subgroup (N=11), 3 mg/kg p.o., listed as Cpmd A
[7] = Low responder subgroup (N=11), 8 mg/kg p.o.
[8] = Low responder subgroup (N=11), 8 mg/kg p.o., listed as Cpmd A
[9] = all rats (N = 32), 1 mg/kg p.o., 120 min pretreatment
[10] = all rats (N = 32), 3 mg/kg p.o., 120 min pretreatment
[11] = all rats (N = 32), 3 mg/kg p.o., 120 min pretreatment, listed as Cpmd A
[12] = all rats (N = 32), 8 mg/kg p.o., 120 min pretreatment
[13] = all rats (N = 32), 8 mg/kg p.o., 120 min pretreatment, listed as Cpmd A
[14] = High responder subgroup (N=11), 0.6 mg/kg i.p.
[15] = Low responder subgroup (N=11), 0.6 mg/kg i.p.
[16] = all rats (N = 32), 0.6 mg/kg i.p., 10 min pretreatment

Cc1cc(N2CCc3cc(F)ccc3C2)cc(C)c1NC(=O)CC(C)(C)C [Compound A, N-[4-(6-fluoro-3,4-dihydro-1H-isoquinolin-2-yl)-2,6-dimethylphenyl]-3,3-dimethylbutanamide]
Lever Press [1]: 707.5 | Rewards (break point) [1]: 14.6 | Sess. Duration [1]: 21.2 | Lever Press [2]: 623.9 | Rewards (break point) [2]: 14.3 | Sess. Duration [2]: 24.3 | Lever Press [3]: 700.0 | Rewards (break point) [3]: 14.6 | Sess. Duration [3]: 20.8 | Lever Press [4]: 141.5 | Rewards (break point) [4]: 8.2 | Sess. Duration [4]: 15.5 | Lever Press [5]: selectively increase; also recorded: statistical significance | Rewards (break point) [5]: selectively increase; also recorded: statistical significance | Sess. Duration [5]: 23.2 | Lever Press [6]: 272.7 | Rewards (break point) [6]: 10.7 | Lever Press [7]: selectively increase; also recorded: statistical significance | Rewards (break point) [7]: selectively increase; also recorded: statistical significance | Sess. Duration [7]: 22.6 | Lever Press [8]: 258.0 | Rewards (break point) [8]: 10.5 | Lever Press [9]: 392.4 | Rewards (break point) [9]: 11.5 | Sess. Duration [9]: 16.9 | Lever Press [10]: significant increase; also recorded: significantly increasing; also recorded: statistical significance | Rewards (break point) [10]: significant increase; also recorded: significantly increasing; also recorded: statistical significance | Sess. Duration [10]: 22.6 | Lever Press [11]: 439.3 | Rewards (break point) [11]: 12.5 | Lever Press [12]: significant increase; also recorded: significantly increasing; also recorded: statistical significance | Rewards (break point) [12]: significant increase; also recorded: significantly increasing; also recorded: statistical significance | Sess. Duration [12]: 21.1 | Lever Press [13]: 479.8 | Rewards (break point) [13]: 12.8

C[C@H](N)Cc1ccccc1 [D-Amphetamine, reference compound]
Rewards (break point) [14]: 17.5±0.9 and 17.5 | Sess. Duration [14]: 52.4 | Rewards (break point) [15]: 12.2±1.2 and 12.2 | Sess. Duration [15]: 44.5 | Lever Press [16]: 893+131 and 893.0 | Rewards (break point) [16]: 14.7 ± 0.7 and 14.7 | Sess. Duration [16]: 44.8

— patent publication US12171759B1, “Methods and uses for treating anhedonia” (Xenon Pharmaceuticals Inc., priority 2021, dated 2024)
